Results published in patent publication US5541175A, “Cephalosporin antibiotics” (Lucky, Ltd., priority 1993, dated 1996).
In brackets after ≈: the same amount, converted by molar mass. Like-named read-outs stand apart in the source and are kept apart here.

Legend:
[1] = Pharmacokinetic properties in rats (blood concentration by agar well biological assay); set-up: species or system SD rats (male); conditions: rat, in vivo, iv, 20 mg/kg
Method: The pharmacokinetic properties of the compound of the present invention were determined using SD rats (.male.) weighing 230±10 g. Specifically,the test samples were injected into femoral vein in an amount of 20 mg/kg to 4 to 5 test animals. Blood was taken from femoral vein 1, 2.5, 5, 10, 20, 40, 60, 120 and 180 minutes after administration and then subjected to a biological assay using agar well method to measure the blood concentration.

Enterobacter cloacae P99 = assay: Minimum inhibitory concentration (agar 2-fold dilution); type: cell-based; conditions: P99, 20 h, read-out: Minimum Inhibitory Concentration
Method: (§1) The minimum inhibitory concentration was determined by diluting the test compounds according to 2-fold dilution, suspending them in Muller-Hinton agar medium, inoculating 2 μl of the suspension containing the test strains having 10^7 CFU (Colony Forming Unit) per 1 ml into the medium and then culturing the test strains at 37° C. for 20 hours.

[2] = system: Escherichia coli TEM9 2639E; assay: as above; type: cell-based; conditions: TEM92639E, 20 h, read-out: Minimum Inhibitory Concentration
Method: as §1

Escherichia coli 851E = assay: as above; type: cell-based; conditions: E. coli 851E, Muller-Hinton agar, 37° C., 20 hours
Method: as §1

[3] = system: Klebsiella aerogenes SHV-1 1976E; assay: as above; type: cell-based; conditions: SHV11976E, K. aerogenes SHV-1 1976E, Muller-Hinton agar, 37° C., 20 hours
Method: as §1

Escherichia coli 3190Y = assay: as above; type: cell-based; conditions: read-out: Minimum Inhibitory Concentration
Method: as §1

[4] = system: Acinetobacter calcoaceticus 15473A; assay: as above; type: cell-based; conditions: A. calcoaceticus 15473A, Muller-Hinton agar, 37° C., 20 hours, read-out: Minimum Inhibitory Concentration
Method: as §1

[5] = system: Escherichia coli TEM5 3739E; assay: as above; type: cell-based; conditions: TEM53739E, 20 h, read-out: Minimum Inhibitory Concentration
Method: as §1

[6] = system: Staphylococcus aureus 6538P; assay: as above; type: cell-based; conditions: read-out: Minimum Inhibitory Concentration
Method: as §1

Escherichia coli 10536 = assay: as above; type: cell-based; conditions: Escherichia coli; E. coli 10536; Muller-Hinton agar, 37° C., 20 hours; read-out: Minimum Inhibitory Concentration
Method: as §1

[7] = system: Pseudomonas aeruginosa 6065; assay: as above; type: cell-based; conditions: Pseudomonas aeruginosa; P. aeruginosa 6065; Muller-Hinton agar, 37° C., 20 hours; read-out: Minimum Inhibitory Concentration
Method: as §1

[8] = system: Staphylococcus aureus epidermidis 887E; assay: as above; type: cell-based; conditions: S. aureus epidermidis 887E, Muller-Hinton agar, 37° C., 20 hours, read-out: Minimum Inhibitory Concentration
Method: as §1

[9] = system: Citrobacter diversus 2046E; assay: as above; type: cell-based; conditions: Citrobacter koseri; C. diversus 2046E; Muller-Hinton agar, 37° C., 20 hours; read-out: Minimum Inhibitory Concentration
Method: as §1

[10] = system: Staphylococcus aureus giorgio; assay: as above; type: cell-based; conditions: read-out: Minimum Inhibitory Concentration
Method: as §1

[11] = system: Streptococcus faecalis 29212A; assay: as above; type: cell-based; conditions: Enterococcus faecalis; S. faecalis 29212A; Muller-Hinton agar, 37° C., 20 hours; read-out: Minimum Inhibitory Concentration
Method: as §1

[12] = system: Enterobacter cloacae IND + VE 1194E; assay: as above; type: cell-based; conditions: E. cloacae IND + VE 1194E, Muller-Hinton agar, 37° C., 20 hours, read-out: Minimum Inhibitory Concentration
Method: as §1

Staphylococcus aureus 77 = assay: as above; type: cell-based; conditions: Staphylococcus aureus; S. aureus 77; Muller-Hinton agar, 37° C., 20 hours; read-out: Minimum Inhibitory Concentration
Method: as §1

[13] = system: Escherichia coli TEM1 1193E; assay: as above; type: cell-based; conditions: TEM11193E, 20 h, read-out: Minimum Inhibitory Concentration
Method: as §1

Proteus vulgaris 6059A = assay: as above; type: cell-based; conditions: P. vulgaris 6059A, Muller-Hinton agar, 37° C., 20 hours, read-out: Minimum Inhibitory Concentration
Method: as §1

[14] = system: Escherichia coli TEM7 3457E; assay: as above; type: cell-based; conditions: TEM73457E, 20 h, read-out: Minimum Inhibitory Concentration
Method: as §1

[15] = system: Escherichia coli TEM3 3455E; assay: as above; type: cell-based; conditions: TEM33455E, 20 h, read-out: Minimum Inhibitory Concentration
Method: as §1

[16] = system: Klebsiella aerogenes K1 + 1082E; assay: as above; type: cell-based; conditions: 20 h, read-out: Minimum Inhibitory Concentration
Method: as §1

[17] = system: Serratia marcescens 1826E; assay: as above; type: cell-based; conditions: S. marcescens 1826E, Muller-Hinton agar, 37° C., 20 hours, read-out: Minimum Inhibitory Concentration
Method: as §1

[18] = system: Salmonella typhimurium 14028A; assay: as above; type: cell-based; conditions: Salmonella enterica; S. typhimurium 14028A; Muller-Hinton agar, 37° C., 20 hours; read-out: Minimum Inhibitory Concentration
Method: as §1

[19] = system: Pseudomonas aeruginosa 10145; assay: as above; type: cell-based; conditions: Pseudomonas aeruginosa; P. aeruginosa 10145; Muller-Hinton agar, 37° C., 20 hours; read-out: Minimum Inhibitory Concentration
Method: as §1

[20] = system: Pseudomonas aeruginosa 1912E; assay: as above; type: cell-based; conditions: P. aeruginosa 1912E, Muller-Hinton agar, 37° C., 20 hours, read-out: Minimum Inhibitory Concentration
Method: as §1

[21] = system: Staphylococcus aureus 241; assay: as above; type: cell-based; conditions: Staphylococcus aureus; S. aureus 241; Muller-Hinton agar, 37° C., 20 hours; read-out: Minimum Inhibitory Concentration
Method: as §1

[22] = E. coli 3190Y, Muller-Hinton agar, 37° C., 20 hours
[23] = S. aureus 6538P, Muller-Hinton agar, 37° C., 20 hours
[24] = S. aureus giorgio, Muller-Hinton agar, 37° C., 20 hours

SMILES	AUC [1]	half-life [1]	MIC (Enterobacter cloacae P99)	MIC [2]	MIC (Escherichia coli 851E)	MIC [3]	MIC [4]	MIC [5]	MIC (Escherichia coli 10536)	MIC [7]	MIC [8]	MIC [9]	MIC [11]	MIC [12]	MIC (Staphylococcus aureus 77)	MIC [13]	MIC (Proteus vulgaris 6059A)	MIC [14]	MIC [15]	MIC [16]	also measured
Nc1cc(N)[n+](C/C=C/C2=C(C(=O)[O-])N3C(=O)[C@@H](NC(=O)/C(=N\O[C@H](C(=O)O)c4ccc(O)c(O)c4)c4csc(N)n4)[C@H]3SC2)cn1 [Compound I-1a, 7-[(Z)-2-(2-aminothiazol-4-yl)-2-(α-carboxy-3,4-dihydroxybenzyloxyimino)acetamido]-3-[(E)-3-(4,6-diaminopyrimidinium-1-yl)-1-propen-1-yl]-3-cephem-4-carboxylate]	32700 ng·h/mL	34 min	32 µg/mL (≈ 46.8 µM)	2 µg/mL (≈ 2.93 µM)	0.031 µg/mL (≈ 0.0453 µM)	0.13 µg/mL (≈ 0.19 µM)	1 µg/mL (≈ 1.46 µM)	0.5 µg/mL (≈ 0.731 µM)	≤ 0.008 µg/mL	1 µg/mL (≈ 1.46 µM)	64 µg/mL (≈ 93.6 µM)	0.13 µg/mL (≈ 0.19 µM)	4 µg/mL (≈ 5.85 µM)	4 µg/mL	4 µg/mL (≈ 5.85 µM)	0.031 µg/mL (≈ 0.0453 µM)	0.063 µg/mL (≈ 0.0921 µM)	0.13 µg/mL (≈ 0.19 µM)	0.13 µg/mL (≈ 0.19 µM)	0.063 µg/mL (≈ 0.0921 µM)	MIC (Escherichia coli 3190Y; [22]): 0.031 µg/mL (≈ 0.0453 µM); MIC [6, 23]: 0.5 µg/mL (≈ 0.731 µM); MIC [10, 24]: 0.5 µg/mL (≈ 0.731 µM); MIC [17]: 0.25 µg/mL (≈ 0.366 µM); MIC [18]: 0.016 µg/mL (≈ 0.0234 µM); MIC [19]: 0.25 µg/mL (≈ 0.366 µM); MIC [20]: 0.5 µg/mL (≈ 0.731 µM); MIC [21]: 64 µg/mL (≈ 93.6 µM)
Nc1nc(/C(=N/O[C@H](C(=O)O)c2ccc(O)c(O)c2)C(=O)N[C@@H]2C(=O)N3C(C(=O)[O-])=C(/C=C/C[n+]4cnc(N)c5c4CCC5)CS[C@H]23)cs1 [Compound I-3a, 7-[(Z)-2-(2-aminothiazol-4-yl)-2-(α-carboxy-3,4-dihydroxybenzyloxyimino)acetamido]-3-[(E)-3-(4-amino-5,6-cyclopentanopyrimidinium-1-yl)-1-propen-1-yl]-3-cephem-4-carboxylate]	36600 ng·h/mL	33 min	16 µg/mL (≈ 22.6 µM)	2 µg/mL (≈ 2.82 µM)	0.031 µg/mL (≈ 0.0437 µM)	0.13 µg/mL (≈ 0.183 µM)	0.5 µg/mL (≈ 0.705 µM)	0.5 µg/mL (≈ 0.705 µM)	0.008 µg/mL (≈ 0.0113 µM)	1 µg/mL (≈ 1.41 µM)	64 µg/mL (≈ 90.3 µM)	0.063 µg/mL (≈ 0.0889 µM)	4 µg/mL (≈ 5.64 µM)	2 µg/mL	4 µg/mL (≈ 5.64 µM)	0.063 µg/mL (≈ 0.0889 µM)	0.13 µg/mL (≈ 0.183 µM)	0.13 µg/mL (≈ 0.183 µM)	0.063 µg/mL (≈ 0.0889 µM)	0.063 µg/mL (≈ 0.0889 µM)	MIC (Escherichia coli 3190Y; [22]): 0.031 µg/mL (≈ 0.0437 µM); MIC ([6]; 6538P, 20 h): 1 µg/mL (≈ 1.41 µM); MIC [10, 24]: 1 µg/mL (≈ 1.41 µM); MIC [17]: 0.5 µg/mL (≈ 0.705 µM); MIC [18]: 0.031 µg/mL (≈ 0.0437 µM); MIC [19]: 0.5 µg/mL (≈ 0.705 µM); MIC [20]: 0.5 µg/mL (≈ 0.705 µM); MIC [21]: > 128 µg/mL
Nc1cc[n+](C/C=C/C2=C(C(=O)[O-])N3C(=O)[C@@H](NC(=O)/C(=N\O[C@H](C(=O)O)c4ccc(O)c(O)c4)c4csc(N)n4)[C@H]3SC2)cn1 [Compound I-2a, 7-[(Z)-2-(2-aminothiazol-4-yl)-2-(α-carboxy-3,4-dihydroxybenzyloxyimino)acetamido]-3-[(E)-3-(4-aminopyrimidinium-1-yl)-1-propen-1-yl]-3-cephem-4-carboxylate]	53600 ng·h/mL	55 min	8 µg/mL (≈ 12 µM)	1 µg/mL (≈ 1.5 µM)	0.063 µg/mL (≈ 0.0942 µM)	0.5 µg/mL (≈ 0.748 µM)	0.5 µg/mL (≈ 0.748 µM)	0.5 µg/mL (≈ 0.748 µM)	0.016 µg/mL (≈ 0.0239 µM)	4 µg/mL (≈ 5.98 µM)	32 µg/mL (≈ 47.9 µM)	0.13 µg/mL (≈ 0.194 µM)	4 µg/mL (≈ 5.98 µM)	1 µg/mL	4 µg/mL (≈ 5.98 µM)	0.063 µg/mL (≈ 0.0942 µM)	0.063 µg/mL (≈ 0.0942 µM)	0.031 µg/mL (≈ 0.0464 µM)	0.063 µg/mL (≈ 0.0942 µM)	0.13 µg/mL (≈ 0.194 µM)	MIC (Escherichia coli 3190Y; 3190Y, 20 h): 0.063 µg/mL (≈ 0.0942 µM); MIC [6, 23]: 0.5 µg/mL (≈ 0.748 µM); MIC ([10]; 20 h): 0.25 µg/mL (≈ 0.374 µM); MIC [17]: 0.5 µg/mL (≈ 0.748 µM); MIC [18]: 0.03 µg/mL (≈ 0.0449 µM); MIC [19]: 0.25 µg/mL (≈ 0.374 µM); MIC [20]: 0.5 µg/mL (≈ 0.748 µM); MIC [21]: 128 µg/mL (≈ 191 µM)
